23 compounds from patent US20110218199A1, “PYRIDONEAMIDE DERIVATIVES, THEIR MANUFACTURE AND USE AS PHARMACEUTICAL AGENTS” (priority 2007, published 2011) can be followed below.

The IC50 is the concentration at which inhibition is half-maximal.

The test concerns HCT 116 cells. As to the kind of experiment: CellTiter-Glo assay in HCT 116 cells (antiproliferative activity). The class given is cell-based. The note with it: Homo sapiens, HCT-116, 120 h, CellTiter-Glo cell viability, HCT 116 human colon carcinoma, 5 days (120 h) incubation. From the text: Antiproliferative Activity:
CellTiter-Glo™ Assay in HCT 116 Cells:
The CellTiter-Glo™ Luminescent Cell Viability Assay (Promega) is a homogeneous method of determining the number of viable cells in culture based on quantitation of the ATP present, which signals the presence of metabolically active cells.
HCT 116 cells (human colon carcinoma, ATCC-No. CCl-247) were cultivated in RPMI 1640 medium with GlutaMAX• I (Invitrogen, Cat-No. 61870-010), 5% Fetal Calf Serum (FCS, Sigma Cat-No. F4135 (FBS)); 100 Units/ml penicillin/100 μg/ml streptomycin (=Pen/Strep from Invitrogen Cat. No. 15140). For the assay the cells were seeded in 384 well plates, 1000 cells per well, in the same medium. The next day the test compounds were added in various concentrations ranging from 30 μM to 0.0015 μM (10 concentrations, 1:3 diluted). After 5 days the CellTiter-Glo™ assay was done according to the instructions of the manufacturer (CellTiter-Glo™ Luminescent Cell Viability Assay, from Promega). In brief: the cell-plate was equilibrated to room temperature for approximately 30 minutes and than the CellTiter-Glo™ reagent was added. The contents were carefully mixed for 15 minutes to induce cell lysis. After 45 minutes the luminescent signal was measured in Victor 2, (scanning multiwell spectrophotometer, Wallac).
1st. Day: • Medium: RPMI 1640 with GlutaMAX™ I (Invitrogen, Cat-Nr. 61870), 5% FCS (Sigma Cat.-No. F4135), Pen/Strep (Invitrogen, Cat No. 15140). • HCT116 (ATCC-No. CC1-247): 1000 cells in 60 μl per well of 384 well plate (Greiner 781098, μClear-plate white) • After seeding incubate plates 24 h at 37° C., 5% CO2
2nd. Day: Induction (Treatment with Compounds, 10 Concentrations):
In order to achieve a final concentration of 30 μM as highest concentration 3.5 μl of 10 mM compound stock solution were added directly to 163 μl media. Then step e) of the dilution procedure described below, was followed.
In order to achieve the second highest to the lowest concentrations, a serial dilution with dilution steps of 1:3 was followed according to the procedure (a-e) as described here below: • a) for the second highest concentration add 10 μl of 10 mM stock solution of compound to 20 μl dimethylsulfoxide (DMSO) • b) dilute 8×1:3 (always 10 μl to 20 μl DMSO) in this DMSO dilution row (results in 9 wells with concentrations from 3333.3 μM to 0.51 μM) • c) dilute each concentration 1: 47.6 (3.5 μl compound dilution to 163 μl media) • d) add 10 μl of every concentration to 60 μl media in the cell plate resulting in final concentration of DMSO: 0.3% in every well and resulting in 10 final concentration of compounds ranging from 30 μM to 0.0015 μM. • Each compound is tested in triplicate. • Incubate 120 h (5 days) at 37° C., 5% CO2 […]
Add 30 μl CellTiter-Glo™ Reagent (prepared from CellTiter-Glo™ Buffer and CellTiter-Glo™ Substrate (lyophilized) purchased from Promega) per well, shake 15 minutes at room temperature incubate further 45 minutes at room temperature without shaking
Victor 2 scanning multiwell spectrophotometer (Wallac), Luminescence mode (0.5 sec/read, 477 nm) Determine IC50 using a non-linear curve fit (XLfit software (ID Business Solution Ltd., Guilford, Surrey, UK))
For orientation: In ATP-based viability assays light output follows the ATP content of the culture.
In turn, `O=C(Nc1ccc(N2CCOCC2)c(F)c1)c1c(NCCc2cccc(Cl)c2)cc[nH]c1=O` [Example 2a, 4-[2-(3-Chloro-phenyl)-ethylamino]-2-oxo-1,2-dihydro-pyridine-3-carboxylic acid (3-fluoro-4-morpholin-4-yl-phenyl)-amide] displayed a half-maximal inhibitory concentration (IC50) of 500 to 15000 nM.

On to `O=C(Nc1cccc(N2CCCC2)c1)c1c(NCCc2cccc(Cl)c2)cc[nH]c1=O` [Example 2e, 4-[2-(3-Chloro-phenyl)-ethylamino]-2-oxo-1,2-dihydro-pyridine-3-carboxylic acid (3-pyrrolidin-1-yl-phenyl)-amide], for which the concentration for half-maximal inhibition (IC50) fell in the range of 500 to 15000 nM. Under `O=C(Nc1ccc(N2CCCC2)c(C(F)(F)F)c1)c1c(NCc2ccccn2)cc[nH]c1=O` [Example 2j, 2-Oxo-4-[(pyridin-2-ylmethyl)-amino]-1,2-dihydro-pyridine-3-carboxylic acid (4-pyrrolidin-1-yl-3-trifluoromethyl-phenyl)-amide] stands 500 to 15000 nM; under `CN1CCN(c2ccc(NC(=O)c3c(NCc4ccccn4)cc[nH]c3=O)cc2F)CC1` [Example 2k, 2-Oxo-4-[(pyridin-2-ylmethyl)-amino]-1,2-dihydro-pyridine-3-carboxylic acid [3-fluoro-4-(4-methyl-piperazin-1-yl)-phenyl]-amide], 500 to 15000 nM; under `O=C(Nc1cccc(N2CCCCC2)c1)c1c(NCCc2cccc(Cl)c2)cc[nH]c1=O` [Example 2n, 4-[2-(3-Chloro-phenyl)-ethylamino]-2-oxo-1,2-dihydro-pyridine-3-carboxylic acid (3-piperidin-1-yl-phenyl)-amide], 500 to 15000 nM. In the case of `O=C(Nc1cccc(N2CCCCC2)c1)c1c(NCc2ccccn2)cc[nH]c1=O` [Example 2o, 2-Oxo-4-[(pyridin-2-ylmethyl)-amino]-1,2-dihydro-pyridine-3-carboxylic acid (3-piperidin-1-yl-phenyl)-amide] it was 500 to 15000 nM.

The compound `CN1CCN(c2ccc(NC(=O)c3c(NC[C@@H](O)c4cccc(Cl)c4)cc[nH]c3=O)cc2)CC1` [Example 2p, 4-[(S)-2-(3-Chloro-phenyl)-2-hydroxy-ethylamino]-2-oxo-1,2-dihydro-pyridine-3-carboxylic acid [4-(4-methyl-piperazin-1-yl)-phenyl]-amide] registered an IC50 of 500 to 15000 nM. Under `CN1CCN(c2ccc(NC(=O)c3c(NCc4ccccn4)cc[nH]c3=O)cc2)CC1` [Example 2s, 2-Oxo-4-[(pyridin-2-ylmethyl)-amino]-1,2-dihydro-pyridine-3-carboxylic acid [4-(4-methyl-piperazin-1-yl)-phenyl]-amide] stands 500 to 15000 nM; under `CN(C)c1cccc(NC(=O)c2c(NC[C@@H](O)c3cccc(Cl)c3)cc[nH]c2=O)c1` [Example 2w, 4-[(S)-2-(3-Chloro-phenyl)-2-hydroxy-ethylamino]-2-oxo-1,2-dihydro-pyridine-3-carboxylic acid (3-dimethylamino-phenyl)-amide], 500 to 15000 nM; under `CC(=O)N1CCN(c2ccc(NC(=O)c3c(NCC(O)c4ccccc4)cc[nH]c3=O)cc2C(F)(F)F)CC1` (centres unmarked) [Example 3, 4-(2-Hydroxy-2-phenyl-ethylamino)-2-oxo-1,2-dihydro-pyridine-3-carboxylic acid[4-(4-acetyl-piperazin-1-yl)-3-trifluoromethyl-phenyl]-amide], 500 to 15000 nM. Under `CN1CCN(c2ccc(NC(=O)c3c(NCCc4cccc(Cl)c4)cc[nH]c3=O)cc2F)CC1` [Example 4a, 4-[2-(3-Chloro-phenyl)-ethylamino]-2-oxo-1,2-dihydro-pyridine-3-carboxylic acid [3-fluoro-4-(4-methyl-piperazin-1-yl)-phenyl]-amide] stands 500 to 15000 nM; under `Cc1cccc(CCNc2cc[nH]c(=O)c2C(=O)Nc2cccc(N3CCN(C)CC3)c2)c1` [Example 4aa, 2-Oxo-4-(2-m-tolyl-ethylamino)-1,2-dihydro-pyridine-3-carboxylic acid [3-(4-methyl-piperazin-1-yl)-phenyl]-amide], 500 to 15000 nM.

Compound `COc1ccccc1CCNc1cc[nH]c(=O)c1C(=O)Nc1cccc(N2CCN(C)CC2)c1` [Example 4ab, 4-[2-(2-Methoxy-phenyl)-ethylamino]-2-oxo-1,2-dihydro-pyridine-3-carboxylic acid [3-(4-methyl-piperazin-1-yl)-phenyl]-amide] showed an IC50 of 500 to 15000 nM. Under `CN1CCN(c2cccc(NC(=O)c3c(NCCc4c[nH]c5ccccc45)cc[nH]c3=O)c2)CC1` [Example 4ae, 4-[2-(1H-Indol-3-yl)-ethylamino]-2-ozo-1,2-dihydro-pyridine-3-carboxylic acid [3-(4-methyl-piperazin-1-yl)-phenyl]-amide] stands 500 to 15000 nM.

Consider `CN1CCN(c2ccc(NC(=O)c3c(NCCc4cccc(Cl)c4)cc[nH]c3=O)cc2)CC1` [Example 4b, 4-[2-(3-Chloro-phenyl)-ethylamino]-2-oxo-1,2-dihydro-pyridine-3-carboxylic acid [4-(4-methyl-piperazin-1-yl)-phenyl]-amide], for which the half-inhibitory concentration (IC50) was in the range of 500 to 15000 nM.

On to `CN1CCN(c2ccc(NC(=O)c3c(NC[C@@H](O)c4ccccc4)cc[nH]c3=O)cc2F)CC1` [Example 4c, 4-[(S)-2-Hydroxy-2-phenyl-ethylamino]-2-oxo-1,2-dihydro-pyridine-3-carboxylic acid [3-fluoro-4-(4-methyl-piperazin-1-yl)-phenyl]-amide], for which the IC50 was in the range of 500 to 15000 nM. In turn, `CC(=O)N1CCN(c2ccc(NC(=O)c3c(NC[C@@H](O)c4cccc(Cl)c4)cc[nH]c3=O)cc2C(F)(F)F)CC1` [Example 4d, 4-[(S)-2-(3-Chloro-phenyl)-2-hydroxy-ethylamino]-2-oxo-1,2-dihydro-pyridine-3-carboxylic acid [4-(4-acetyl-piperazin-1-yl)-3-trifluoromethyl-phenyl]-amide] had an IC50 of 1250 nM.

`COc1ccc(NC(=O)c2c(NC[C@@H](O)c3cccc(Cl)c3)cc[nH]c2=O)cc1N1CCN(C)CC1` [Example 4i, 4-[(S)-2-(3-Chloro-phenyl)-2-hydroxy-ethylamino]-2-oxo-1,2-dihydro-pyridine-3-carboxylic acid [4-methoxy-3-(4-methyl-piperazin-1-yl)-phenyl]-amide] gave a half-inhibitory concentration (IC50) of 500 to 15000 nM. In the case of `O=C(Nc1cccc(N2CCOCC2)c1)c1c(NC[C@@H](O)c2cccc(Cl)c2)cc[nH]c1=O` [Example 4m, 4-[(S)-2-(3-Chloro-phenyl)-2-hydroxy-ethylamino]-2-oxo-1,2-dihydro-pyridine-3-carboxylic acid (3-morpholin-4-yl-phenyl)-amide] it was 500 to 15000 nM; in that of `CS(=O)(=O)c1cccc(NC(=O)c2c(NC[C@@H](O)c3cccc(Cl)c3)cc[nH]c2=O)c1` [Example 4p, 4-[(S)-2-(3-Chloro-phenyl)-2-hydroxy-ethylamino]-2-oxo-1,2-dihydro-pyridine-3-carboxylic acid (3-methanesulfonyl-phenyl)-amide], 500 to 15000 nM; in that of `CSc1cccc(NC(=O)c2c(NC[C@@H](O)c3cccc(Cl)c3)cc[nH]c2=O)c1` [Example 4q, 4-[(S)-2-(3-Chloro-phenyl)-2-hydroxy-ethylamino]-2-oxo-1,2-dihydro-pyridine-3-carboxylic acid (3-methylsulfanyl-phenyl)-amide], 500 to 15000 nM. For the compound `CN1CCN(c2cccc(NC(=O)c3c(NCCc4ccccc4)cc[nH]c3=O)c2)CC1` [Example 4v, 2-Oxo-4-phenethylamino-1,2-dihydro-pyridine-3-carboxylic acid [3-(4-methyl-piperazin-1-yl)-phenyl]-amide], the IC50 was 500 to 15000 nM. Consider `COc1cccc(CCNc2cc[nH]c(=O)c2C(=O)Nc2cccc(N3CCN(C)CC3)c2)c1` [Example 4y, 4-[2-(3-Methoxy-phenyl)-ethylamino]-2-oxo-1,2-dihydro-pyridine-3-carboxylic acid [3-(4-methyl-piperazin-1-yl)-phenyl]-amide], for which the IC50 is 500 to 15000 nM.
